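These data come from cells grown in 96-well plates and exposed to compound for 48 hours at five concentrations. The concentration for full growth arrest is given as TGI.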
Legend:
Assay in all cases: NCI anticancer screen, dose series, 48 h
786-0 renal = tested on: 786-0 renal
A498 renal = tested on: A498 renal
A549 NSCLC = tested on: A549 NSCLC
ACHN renal = tested on: ACHN renal
BT-549 breast = tested on: BT-549 breast
CAKI-1 renal = tested on: CAKI-1 renal
COLO 205 colon = tested on: COLO 205 colon
DU-145 prostate = tested on: DU-145 prostate
EKVX NSCLC = tested on: EKVX NSCLC
HCC-2998 colon = tested on: HCC-2998 colon
HCT-116 colon = tested on: HCT-116 colon
HCT-15 colon = tested on: HCT-15 colon
HL-60(TB) leukemia = tested on: HL-60(TB) leukemia
HOP-62 NSCLC = tested on: HOP-62 NSCLC
HOP-92 NSCLC = tested on: HOP-92 NSCLC
HS 578T breast = tested on: HS 578T breast
HT29 colon = tested on: HT29 colon
IGROV1 ovarian = tested on: IGROV1 ovarian
K-562 leukemia = tested on: K-562 leukemia
KM12 colon = tested on: KM12 colon
LOX IMVI melanoma = tested on: LOX IMVI melanoma
M14 melanoma = tested on: M14 melanoma
MALME-3M melanoma = tested on: MALME-3M melanoma
MCF7 breast = tested on: MCF7 breast
MDA-MB-231 breast = tested on: MDA-MB-231 breast
MDA-MB-435 = tested on: MDA-MB-435
MDA-N = tested on: MDA-N
MOLT-4 leukemia = tested on: MOLT-4 leukemia
NCI-H226 lung = tested on: NCI-H226 lung
NCI-H23 lung = tested on: NCI-H23 lung
NCI-H460 lung = tested on: NCI-H460 lung
NCI-H522 lung = tested on: NCI-H522 lung
NCI/ADR-RES ovarian = tested on: NCI/ADR-RES ovarian
OVCAR-3 ovarian = tested on: OVCAR-3 ovarian
OVCAR-4 ovarian = tested on: OVCAR-4 ovarian
OVCAR-5 ovarian = tested on: OVCAR-5 ovarian
OVCAR-8 ovarian = tested on: OVCAR-8 ovarian
PC-3 prostate = tested on: PC-3 prostate
RPMI-8226 leukemia = tested on: RPMI-8226 leukemia
RXF 393 renal = tested on: RXF 393 renal
SF-268 CNS = tested on: SF-268 CNS
SF-295 CNS = tested on: SF-295 CNS
SF-539 CNS = tested on: SF-539 CNS
SK-MEL-28 melanoma = tested on: SK-MEL-28 melanoma
SK-MEL-5 melanoma = tested on: SK-MEL-5 melanoma
SK-OV-3 ovarian = tested on: SK-OV-3 ovarian
SN12C renal = tested on: SN12C renal
SNB-19 CNS = tested on: SNB-19 CNS
SNB-75 CNS = tested on: SNB-75 CNS
SR leukemia = tested on: SR leukemia
SW-620 colon = tested on: SW-620 colon
T-47D breast = tested on: T-47D breast
TK-10 renal = tested on: TK-10 renal
U251 CNS = tested on: U251 CNS
UACC-257 melanoma = tested on: UACC-257 melanoma
UACC-62 melanoma = tested on: UACC-62 melanoma
UO-31 renal = tested on: UO-31 renal
CCRF-CEM leukemia = tested on: CCRF-CEM leukemia
DLD-1 colon = tested on: DLD-1 colon
DMS 114 small cell lung = tested on: DMS 114 small cell lung
DMS 273 small cell lung = tested on: DMS 273 small cell lung
KM20L2 colon = tested on: KM20L2 colon
LXFL 529 NSCLC = tested on: LXFL 529 NSCLC
M19-MEL melanoma = tested on: M19-MEL melanoma
SK-MEL-2 melanoma = tested on: SK-MEL-2 melanoma
XF 498 CNS = tested on: XF 498 CNS

Measured: TGI

CC(=O)OCC1OC(n2c(Br)nc3c2c(=O)n(C)c(=O)n3C)C(OC(C)=O)C1OC(C)=O (configuration not stated)
> 100 µM: 786-0 renal | A498 renal | A549 NSCLC | ACHN renal | BT-549 breast | CAKI-1 renal | COLO 205 colon | DU-145 prostate | EKVX NSCLC | HCC-2998 colon | HCT-116 colon | HCT-15 colon | HOP-62 NSCLC | HOP-92 NSCLC | HS 578T breast | HT29 colon | IGROV1 ovarian | K-562 leukemia | KM12 colon | LOX IMVI melanoma | M14 melanoma | MALME-3M melanoma | MCF7 breast | MDA-MB-231 breast | MDA-MB-435 | MDA-N | MOLT-4 leukemia | NCI-H226 lung | NCI-H23 lung | NCI-H460 lung | NCI-H522 lung | NCI/ADR-RES ovarian | OVCAR-3 ovarian | OVCAR-5 ovarian | OVCAR-8 ovarian | PC-3 prostate | RXF 393 renal | SF-268 CNS | SF-295 CNS | SF-539 CNS | SK-MEL-28 melanoma | SK-MEL-5 melanoma | SK-OV-3 ovarian | SN12C renal | SNB-19 CNS | SNB-75 CNS | SR leukemia | SW-620 colon | T-47D breast | TK-10 renal | U251 CNS | UACC-257 melanoma | UACC-62 melanoma | UO-31 renal
83.6 µM: OVCAR-4 ovarian
95.6 µM: RPMI-8226 leukemia
57.9 µM: HL-60(TB) leukemia

COc1cc(C(C)O)c[n+](CCC2CNc3ccccc32)c1 (configuration not stated)
> 100 µM: 786-0 renal | A498 renal | A549 NSCLC | ACHN renal | CAKI-1 renal | CCRF-CEM leukemia | COLO 205 colon | DLD-1 colon | DMS 114 small cell lung | DMS 273 small cell lung | EKVX NSCLC | HCC-2998 colon | HCT-116 colon | HCT-15 colon | HL-60(TB) leukemia | HOP-62 NSCLC | HT29 colon | IGROV1 ovarian | K-562 leukemia | KM12 colon | KM20L2 colon | LOX IMVI melanoma | LXFL 529 NSCLC | M14 melanoma | M19-MEL melanoma | MALME-3M melanoma | MOLT-4 leukemia | NCI-H226 lung | NCI-H23 lung | NCI-H460 lung | NCI-H522 lung | OVCAR-3 ovarian | OVCAR-4 ovarian | OVCAR-8 ovarian | RPMI-8226 leukemia | SF-295 CNS | SF-539 CNS | SK-MEL-2 melanoma | SK-MEL-5 melanoma | SN12C renal | SNB-19 CNS | SNB-75 CNS | SR leukemia | SW-620 colon | U251 CNS | UACC-257 melanoma | UACC-62 melanoma | UO-31 renal | XF 498 CNS
93 µM: SF-268 CNS

From PubChem BioAssay (NCI)
